Assays:
[1] = format: in vivo, human
[2] = 1-hr infusions of flavopiridol as a single agent; cited from earlier work
ABCG2 = details: cited from earlier work
human serum proteins = details: cited from earlier work
[3] = for Plasma concentration, effect of flavopiridol: immediately prior to (24 h) vs end of 1-hr flavopiridol infusion (25 h) on day 2

Row | SMILES | mean flavopiridol clearance (per body surface area) ([1]; 1-hr infusions of 30, 45 or 60 mg/m^2 with 400 or 600 mg/day imatinib, cycle 1) [L/hr/m^2] | clearance ([1]; human, plasma, intravenous) [mL/min] | half-life ([1]; human, plasma, intravenous) [h] | flavopiridol clearance, previously reported [2] [L/hr/m^2] | ABCG2 substrate status (ABCG2) | binding to human serum proteins (human serum proteins) | ABCG2 inhibition (ABCG2) | Plasma concentration, effect of flavopiridol [3] | AUC of imatinib, lower in the presence of flavopiridol ([3]; on average, presence vs absence of flavopiridol, p=0.022) [%] | AUC of the metabolite CGP74588, effect of flavopiridol ([3]; presence vs absence of flavopiridol, P=0.84)
1 | CN1CC[C@H](c2c(O)cc(O)c3c(=O)cc(-c4ccccc4Cl)oc23)[C@H](O)C1 [flavopiridol] | 13.2 | 427 | 2.33 ± 0.97 | 13.8 | substrate | bind tightly | – | – | – | –
2 | Cc1ccc(NC(=O)c2ccc(CN3CCN(C)CC3)cc2)cc1Nc1nccc(-c2cccnc2)n1 [imatinib] | – | – | – | – | – | – | inhibitor | did not affect | 21 | –
3 | Cc1ccc(NC(=O)c2ccc(CN3CCNCC3)cc2)cc1Nc1nccc(-c2cccnc2)n1 [CGP74588] | – | – | – | – | – | – | – | increase | – | not significantly affected

— article PMC3365614 (Cancer Chemotherapy and Pharmacology, 2012)
